The values that follow come from patent publication US11992500B2, “Use of methylation inhibitors for the treatment of autoimmune diseases” (Rush University Medical Center, priority 2018, dated 2024).

Entries after “also recorded” stand apart in the source; their conditions may differ.

Data set [1] deals with A20 cells. Description: Gene expression (qRT-PCR) in A20 cells cultured with epigenetic enzyme inhibitors. It counts as cell-based, mouse.
In data set [2] the test system is A20 cells. The description is as above. The format is cell-based, mouse. How it is done:
Cell cultures: A20 mouse B cell line were purchased from American Type Culture Collection (ATCC) and were maintained at 37° C. in a 5% CO2-humidified atmosphere on Dulbecco's modified Eagle's medium (DMEM) containing 10% fetal bovine serum (FBS) and […] each of penicillin and streptomycin. Human B cell line GM12878 were purchased from ATCC and cultured in RPMI 1640 media and maintained at 37° C. in a 5% CO2-humidified incubator as described above.
Azacitidine (AzaC) treatment of A20 cells: […] were seeded into 6-well plates containing 3 ml cell culture medium. Before AzaC treatment, cells were incubated for 16-18 hours at 37° C. in 5% CO2. Cells were treated with AzaC to a final concentration of 5, 10 and […], control cells were treated with 0.15% DMSO. Cells were incubated for 48, 72 and 96 hours under standard cell culture conditions. After 48 and 72 hours AzaC was replenished to keep the desired AzaC concentration. Harvested cells were washed with phosphate buffered saline (PBS) and viability and cell numbers were assessed on Vi-cell XR cell counter (Beckmann Counter).
RNA isolation, cDNA synthesis, and quantitative reverse transcription-polymerase chain reaction (qRT-PCR): Total RNA from cell culture was isolated using QIAmp RNA Blood Kit (Qiagen) or Direct-Zol™ RNA miniprep Kit (Zymo Research). Each RNA sample was digested with 4U of TurboDNase™ (Ambion) and purified with RNA clean and concentrator-5 (Zymo Research) and samples quantified using NanoDrop 1000 spectrophotometer. Primary mouse cells were collected from the spleens, on day 9 after the third PG injection. B cells were purified using antibody-coated magnetic beads (StemCell Technologies). RNA was isolated from purified mouse lymphocytes using a TRI reagent (Sigma-Aldrich) immediately after separation.
Human peripheral blood mononuclear cells (PBMCs) were separated on a Ficoll gradient from blood samples obtained from consenting, healthy individuals and from RA patients naive to treatment with disease-modifying antirheumatic drugs (DMARDs). The isolated mononuclear cells were stored in RNAlater (Life Technologies) until RNA preparation. Complementary DNA was reverse transcribed from 1 μg total RNA with iScript™ Reverse Transcription Supermix (Bio-Rad Laboratories). Quantitative RT-PCR (CFX Connect™, Bio-Rad Laboratories) was performed in triplicate using SsoAdvanced™ Universal SYBR Green Supermix (Bio-Rad Laboratories) in 10 μl. Quantitative RT-PCR was performed using CFX machine (Bio-Rad). Primers were designed using PrimerQuest software and were manufactured by Integrated DNA Technologies. The qRT-PCR primer sequences are available upon request from the corresponding author. The specificity of the qRT-PCR product was monitored by a post-PCR melting curve analysis. Samples were tested in duplicate, and the CFX manager software was used to calculate the normalized fold expression changes based on the ΔΔCt method. Measured Ct values were normalized to β-actin internal control values.
This is another data set of the same source.

For data set [3], the system named is A20 cells. In words: Western blot of subcellular fractions of AzaC treated A20 cells. The format is cell-based, mouse. The method, then:
Western blot analyses: AzaC treated A20 cells (10 μM AzaC for 72 hours) washed with PBS, nuclear and cytoplasmic extracts were prepared from 8×10^6 cells using Nuclei EZ Prep kit (Sigma-Aldrich) according to the manufacturer's protocol. Protein extracts were separated on a 4-10% SDS-polyacrylamide gel (Bio-Rad Laboratories) and blotted onto Immuno-Blot membrane (Bio-Rad Laboratories). Western blots were serially probed with anti-AhR, anti-Lamin-B1 and glyceraldehyde-3-phosphate dehydrogenase (GAPDH) (Santa Cruz Biotechnologies) antibodies. ECL Western Blotting Substrate (ThermoScientific) was used for detection.

Data set [4] deals with proteoglycan-induced arthritis (PGIA). In words: Therapeutic AzaC treatment of established PGIA. The settings on record: AzaC i.p. every other day after first symptoms (score ≥2), 2 mg/kg. It counts as in vivo, BALB/c mice. The method, then: Mice: Retired breeder female BALB/c mice were purchased from the National Cancer Institute (NCI) and were used for the generation of cartilage proteoglycan-induced arthritis (PGIA). Briefly, the mice were immunized with PG purified from knee joint cartilage osteoarthritis patients who had undergone joint replacement surgery. PG was injected intraperitoneally (IP) 3 times (at 3-week intervals, 100 μg PG core protein/injection) with 2 mg of dimethyl-dioctadecyl-ammonium bromide adjuvant into BALB/c mice. Mice with acute arthritis were sacrificed 9 days after the 3rd PG immunization. Animal experiments were approved by the Institutional Animal Care and Use Committee at Rush University Medical Center, Chicago, Ill. […] Additional characteristics of RA are also present in other rodent models, but the above listed phenotypes and genotypes are present together only in PGIA.
In the therapeutic AzaC treatment group, arthritic mice were i.p. injected with either AzaC or vehicle on every other day following the first symptoms of arthritis, when the visual arthritis score was at least ≥2 per animal (FIG. 3(B)).

The test system of data set [5] is ex vivo-cultured arthritic B cells. In words: Ahr expression (RT-qPCR) in ex vivo-cultured arthritic B cells. As to conditions: 20 μM AzaC, FIG. 1(J). It counts as cell-based, mouse. The source says: Primary mouse cells were collected from the spleens, on day 9 after the third PG injection. B cells were purified using antibody-coated magnetic beads (StemCell Technologies). RNA was isolated from purified mouse lymphocytes using a TRI reagent (Sigma-Aldrich) immediately after separation.

[6] abbreviates: 72 hours, AzaC 2, 5, 10 μM, SAHA 0.1, 0.5, 1.0 μM, GSK126 5, 10, 15 μM, FIG. 6.
The mark [7] stands for this setting: AzaC 48 hours, plasmid not expressing Ahr-specific shRNA.

Regarding `Nc1ncn([C@@H]2O[C@H](CO)[C@@H](O)[C@H]2O)c(=O)n1` [AzaC, 4-Amino-1-(β-D-ribofuranosyl)-1,3,5-triazin-2(1H)-one], in the data set with A20 cells [1] (10 μM AzaC, 24, 48 and 72 hours), the “Ahr expression, time course” value was “could be reactivated; also recorded: increased Ahr expression; also recorded: significantly increased; also recorded: releases Ahr from DNA methylation-mediated silencing”. In the data set on A20 cells [1] (setting [6]), the AhR gene expression result is given as “significant reactivation” and the Arnt gene expression result was “could not trigger significant upregulation”. Moreover, the Aicda expression result in the data set on A20 cells [1] (extended exposure to AzaC (24-72 hours)) is reported as “significantly downregulated; also recorded: reduces Aicda expression; also recorded: downregulated expression”. In the data set with A20 cells [2] (10 μM AzaC for 72 hours, FIG. 5(C)), the “Expression of tentative AhR target genes (cytokine genes)” value is reported as “could significantly alter the expression of three tentative AhR target genes”. For the same compound, the “Aicda expression with Ahr-specific shRNA” value in the data set on A20 cells [2] (AzaC 48 hours plus Ahr-specific shRNA-expressing construct) was “reversed”. In addition, in the data set on A20 cells [2] (setting [7]), the “Ahr expression, control plasmid” value is “significantly increased” and the “Aicda expression, control plasmid” value is reported as “downregulated”. Besides, the AhR gene expression entry in the data set on A20 cells [2] (AzaC in various concentrations (5, 10, 15 μM), followed for three days, FIG. 1(L)) was “could revive AhR expression after two days”. Moreover, in the data set with A20 cells [2] (AzaC treatment), the Cyp1a1 gene expression entry is recorded as “elevated expression of Cyp1a1 gene”. The Arnt expression entry in the data set with A20 cells [2] (AzaC treatment, FIG. 1(M), FIG. 2(A)) was “increased; also recorded: reactivated; also recorded: just prolonged and high concentration AzaC treatment could have released it from the silent state”. Besides, the RelB expression result in the data set with A20 cells [2] (AzaC treatment, FIG. 2(B)) is “increased”. Moreover, the “Translocation of AhR into nuclei” value in the data set on A20 cells [3] (10 μM AzaC for 72 hours, Western blot) is recorded as “translocation of the translated product into A20 nuclei; also recorded: AhR translocated into the nucleus without adding specific agonist”. Moreover, the “Aicda protein level in cytoplasmic fraction” value in the data set with A20 cells [3] (Western blot, FIG. 2(E)) is listed as “downregulation could be also observed at protein level; also recorded: reduces Aicda level”. In the data set with A20 cells [3] (Western blotting), the AhR protein level result is given as “elevated AhR protein level was not detected”. For the same compound, in data set [4], the “Swelling and progression of established PGIA” value is “significantly reduce swelling and halt the progression of PGIA; also recorded: very effective; also recorded: no detectable signs of PGIA after the second AzaC injection; also recorded: halted the progression of PGIA; also recorded: clinical symptoms of RA were abolished”. Also, the Ahr expression result in data set [5] is reported as “restored”.
